{
  "source": "paper PMC10020666",
  "about": "“Oxidation modulates LINGO2-induced inactivation of large conductance, Ca^2+-activated potassium channels” (The Journal of Biological Chemistry, 2023)",
  "molecules": {"B1": {"name": "LINGO2 tail peptide Ac-RRFNM(O)KM(O)I-NH2 (peptide)", "peptide": "Ac-RRFN[Met(O)]K[Met(O)]I-NH2", "SMILES": "CC[C@H](C)[C@H](NC(=O)[C@H](CCS(C)=O)NC(=O)[C@H](CCCCN)NC(=O)[C@H](CCS(C)=O)NC(=O)[C@H](CC(N)=O)NC(=O)[C@H](Cc1ccccc1)NC(=O)[C@H](CCCNC(=N)N)NC(=O)[C@H](CCCNC(=N)N)NC(C)=O)C(N)=O"}, "B2": {"name": "LINGO2 tail peptide Ac-RRFNM(O)KMI-NH2 (peptide)", "peptide": "Ac-RRFN[Met(O)]KMI-NH2", "SMILES": "CC[C@H](C)[C@H](NC(=O)[C@H](CCSC)NC(=O)[C@H](CCCCN)NC(=O)[C@H](CCS(C)=O)NC(=O)[C@H](CC(N)=O)NC(=O)[C@H](Cc1ccccc1)NC(=O)[C@H](CCCNC(=N)N)NC(=O)[C@H](CCCNC(=N)N)NC(C)=O)C(N)=O"}, "B3": {"name": "LINGO2 tail peptide Ac-RRFNMKM(O)I-NH2 (peptide)", "peptide": "Ac-RRFNMK[Met(O)]I-NH2", "SMILES": "CC[C@H](C)[C@H](NC(=O)[C@H](CCS(C)=O)NC(=O)[C@H](CCCCN)NC(=O)[C@H](CCSC)NC(=O)[C@H](CC(N)=O)NC(=O)[C@H](Cc1ccccc1)NC(=O)[C@H](CCCNC(=N)N)NC(=O)[C@H](CCCNC(=N)N)NC(C)=O)C(N)=O"}},
  "key": {"[1]": {"target": "T1, BKα currents (BK channels) in HEK cell patches (Oryctolagus cuniculus, UniProt Q9BG98)", "T1 construct": "expressed in transfected cells; host or cells: HEK293 cells, transient transfection with lipofectamine (BKα cDNA plus GFP plasmid)", "T1 sequence (Q9BG98 whole entry)": "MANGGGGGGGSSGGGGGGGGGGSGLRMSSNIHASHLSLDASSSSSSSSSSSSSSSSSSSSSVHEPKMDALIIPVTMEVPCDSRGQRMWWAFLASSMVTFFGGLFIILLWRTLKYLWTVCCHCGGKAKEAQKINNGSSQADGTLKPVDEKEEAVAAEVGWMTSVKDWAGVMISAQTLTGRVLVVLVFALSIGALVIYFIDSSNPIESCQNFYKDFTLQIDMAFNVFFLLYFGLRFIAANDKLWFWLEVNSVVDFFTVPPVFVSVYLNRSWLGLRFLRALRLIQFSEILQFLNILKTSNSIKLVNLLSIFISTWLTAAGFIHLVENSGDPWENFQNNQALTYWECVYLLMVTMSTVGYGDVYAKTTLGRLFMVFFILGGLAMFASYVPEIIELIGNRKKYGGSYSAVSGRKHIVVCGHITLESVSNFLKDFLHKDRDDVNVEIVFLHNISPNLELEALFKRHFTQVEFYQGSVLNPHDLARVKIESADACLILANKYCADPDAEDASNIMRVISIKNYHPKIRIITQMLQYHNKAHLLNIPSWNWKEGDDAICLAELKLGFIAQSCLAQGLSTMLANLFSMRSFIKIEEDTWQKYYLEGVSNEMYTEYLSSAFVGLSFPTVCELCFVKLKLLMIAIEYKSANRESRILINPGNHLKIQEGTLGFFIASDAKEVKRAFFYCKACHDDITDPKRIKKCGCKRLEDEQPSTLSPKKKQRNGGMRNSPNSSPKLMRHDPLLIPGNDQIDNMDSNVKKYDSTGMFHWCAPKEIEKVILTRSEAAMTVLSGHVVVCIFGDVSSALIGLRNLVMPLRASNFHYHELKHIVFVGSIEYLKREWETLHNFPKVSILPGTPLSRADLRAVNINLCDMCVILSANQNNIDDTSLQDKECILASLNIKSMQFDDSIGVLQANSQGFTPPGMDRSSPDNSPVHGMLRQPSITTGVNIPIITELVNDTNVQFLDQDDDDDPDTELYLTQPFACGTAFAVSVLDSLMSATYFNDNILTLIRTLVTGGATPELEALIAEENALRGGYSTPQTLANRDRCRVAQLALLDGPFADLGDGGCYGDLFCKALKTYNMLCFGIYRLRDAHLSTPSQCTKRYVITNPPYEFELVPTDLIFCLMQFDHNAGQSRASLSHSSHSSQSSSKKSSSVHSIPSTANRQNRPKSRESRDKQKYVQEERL", "assay": "Inhibition of BKα currents by synthetic LINGO2 tail peptides (excised inside-out patch clamp)", "format": "cell-based, rabbit", "details": "1 μM Ca2+; for IC50Last5ms increase compared to WT LINGO2 peptide / 95% Confidence Intervals of IC50Last5ms: +160 mV; for IC50Last5ms increase compared to WT LINGO2 peptide: p < 0.001, extra sum of squares F-test; for IC50: step to +160 mV for 100 ms from -60 mV, inside-out patches, 37 °C, pH 7.2, Hill-Langmuir fit, mean ± SD; for Inactivation of BK currents by peptide: step to +160 mV, rate compared at 1 μM peptide", "procedure": "(§1) All excised patch experiments were performed at 37 °C in 140 mM symmetrical K^+ solutions which contained 140 mM KCl, 10 mM glucose, 10 mM Hepes, and either 1 mM ethylene glycol-bis(β-amino ether)-N,N,N′,N′-tetraacetic acid (EGTA (for free [Ca^2+] 100 nM to 300 nM) or 1 mM hydroxyethylethylenediaminetriacetic acid (HEDTA for free [Ca^2+] 1 μM to 10 μM) and the pH of all solutions was adjusted to 7.2 with KOH. These solutions were made with double-distilled, deionized, filtered water from a MilliQ water purification system. The pipette solution contained 100 nM free Ca^2+. We used “Chelator” (https://www.ru.nl/animal/research/chelator/) to calculate the total amount of Ca^2+ required, as per Schoenmakers et al., ([40]) and free Ca^2+ concentrations were checked with a Ca^2+ sensitive electrode.\n(§2) During experiments, the dish containing HEK cells was superfused with Hanks solution, which contained (in mM) 129.8 Na^+, 5.8 K^+, 135 Cl^-, 4.17 HCO3^-, 0.34 HPO4^2-, 0.44 H2PO4^-, 1.8 Ca^2+, 0.9 Mg^2+, 0.4 SO4^2-, 10 glucose, 2.9 sucrose, and 10 Hepes, and its pH was adjusted to 7.4 with NaOH. In addition, the patch under study was continuously superfused by means of a close delivery system consisting of a pipette (tip diameter 200 μm) placed approximately 300 μm away from the cell. This could be switched, with a dead-space time of around 5 s, to a solution containing a drug.\n(§3) Electrodes were pulled from Corning borosilicate glass (1.5 mm O.D. × 0.86 mm I.D.) using a Sutter P-97 pipette puller and fire polished using a Narashige MF 83 microforge. Pipettes had resistances of 2 to 5 MΩ when filled with recording solutions and series resistance was compensated by up to 80%. Standard single-channel patch clamp recording methods were used. Voltage clamp commands were delivered via an Axopatch 200B patch clamp amplifier (Axon Instruments) connected to a Digidata 1322A AD/DA converter (Axon Instruments) interfaced to computers running pClamp software (Axon Instruments). Data was acquired at 100 KHz and filtered at 2 KHz or 5 KHz. Patches were held at either −60 mV or −100 mV and depolarized in 20 mV increments to 200 mV. Residual capacitance and leakage currents were subtracted using either a P/4 protocol or offline by manual leak subtraction.\n(§4) The human LINGO2 transcript used [NM_001354575.2] was untagged in a pcDNA 3.1 vector (VectorBuilder). The α subunit of the rabbit BK channel was isolated from rabbit urethral smooth muscle and cloned using the pcDNA TOPO DNA cloning kit (Life Technologies). The identifiesd transcript corresponded to the ZERO variant of mouse BKα and to variant 2 (NM_002247.3) of human BKα. We used 100 ng ml^−1 cDNA for BKα only transfections, whereas a 100:500 ng ml^−1 cDNA ratio was used for BKα:LINGO2 and BKα:LINGO1 cotransfections for inside-out patch recordings. GFP (150 ng ml^−1) was included in all transfections except those used for Figure 2, C and D. cDNA was transiently transfected into HEK cells using lipofectamine. Site-directed mutagenesis used the Phusion kit (Thermo Fisher Scientific) method ([41]) and all mutations were confirmed by sequencing.\n(§5) HEK293 cells were cultured in Dulbecco's modified Eagle's medium + MEM media containing 10% fetal bovine serum and 1% Penicillin-Streptomycin antibiotics at 37 °C, and 95% humidifying incubator containing 5% CO2. Subculturing was done by 0.05% Trypsin-EDTA solution.\nConcentration–effect data were fitted with a Hill–Langmuir equation:[4] I/Icontrol=1/{1+10^ˆ(log[Drug]−logIC50)} where, I was the current recorded in the drug, Icontrol was the current in the absence of drug, IC50 was the half-maximal effective concentration, and [Drug] was the concentration variable.\nAll data is presented as mean ± SD and was analyzed with Prism software (GraphPad). Individual data points are also shown in bar charts. […]"}, "BK:LINGO2 channels": {"test_system": "BK:LINGO2 channels", "assay": "Effect of oxidizing/reducing agents on BK:LINGO2 currents (inside-out patch, step to +160 mV)", "format": "cell-based, rabbit BKα, human LINGO2", "procedure": "as §1, §2, §3, §4, §5\nAll data is presented as mean ± SD and was analyzed with Prism software (GraphPad). Individual data points are also shown in bar charts. Statistical differences were assessed using either paired or unpaired nonparametric tests (Wilcoxin signed-rank test, Mann–Whitney test), or the extra sum of squares F-test, as appropriate. Comparisons of three or more nonparametric data sets used Friedman’s test followed by Dunn’s test for multiple comparisons, whereas ANOVA was used for three or more parametric data sets. p < 0.05 was taken as significant."}, "[2]": {"target": "α subunit of the rabbit BK channel (large conductance, Ca2+ and voltage-activated K+ channel) (rabbit)"}, "[3]": {"details": "n = 5 (M605 oxidized), 6 (M603 oxidized), 7 (both), read-out: IC50Last5ms (half maximal block of current amplitude in last 5 ms of pulse)"}},
  "note": "“Also recorded” adds a separate entry of the source. Where two headings read alike, the source gives them in different places. Square brackets hold non-standard residues; d marks the D form. Peptide text beside a SMILES is read from it. Met(O) = CS(=O)CC[C@H](N)C(=O)O",
  "data": [
    {"molecule": "CC[C@H](C)[C@H](NC(=O)[C@H](CC[S+](C)[O-])NC(=O)[C@H](CCCCN)NC(=O)[C@H](CC[S+](C)[O-])NC(=O)[C@H](CC(N)=O)NC(=O)[C@H](Cc1ccccc1)NC(=O)[C@H](CCCNC(=N)N)NC(=O)[C@H](CCCNC(=N)N)NC(C)=O)C(N)=O", "note": "(stereo partly drawn) [Ac-RRFNM(O)KM(O)I-NH2] (Ac-RRFN[Met(O)]K[Met(O)]I-NH2)", "values": [
      {"measurement": "IC50Last5ms increase compared to WT LINGO2 peptide", "setting": "[1]", "value": "~50", "unit": "fold"},
      {"measurement": "IC50", "setting": "[1]; [3]", "value": "13.9 ± 1.1", "unit": "µM"},
      {"measurement": "Inactivation of BK currents by peptide", "setting": "[1]", "value": "greatly reduced"},
      {"measurement": "Inactivation of BK currents by peptide", "setting": "[1]; listed as RRFNM(O)KM(O)I", "value": "inactivation was practically abolished at all concentrations tested"},
      {"measurement": "Inactivation of BK currents by peptide", "setting": "[1]; listed as peptide containing Met(O) at both positions", "value": "time-dependent inactivation was practically abolished"}
    ]},
    {"molecule": "Ac-RRFNMKMI-NH2 [Ac-RRFNMKMI-NH2]", "values": [
      {"measurement": "95% Confidence Intervals of IC50Last5ms", "setting": "[1]; n = 6", "value": "0.223 to 0.303", "unit": "µM"},
      {"measurement": "IC50", "setting": "[1]; n = 6, read-out: IC50Last5ms (half maximal block of current amplitude in last 5 ms of pulse)", "value": "0.26 ± 0.078", "unit": "µM"},
      {"measurement": "Inactivation of BK currents by peptide", "setting": "[1]", "value": "caused inactivation, the rate of which was concentration-dependent"}
    ]},
    {"molecule": "O[C@@H](CS)[C@@H](O)CS", "note": "[DTT]", "values": [
      {"measurement": "Effect of DTT alone on peak or sustained currents", "setting": "BK:LINGO2 channels; 100 μM DTT, 1-5 min, 100 nM Ca2+, 5 to 7 experiments", "value": "failed to alter the peak (black circles) or sustained (purple diamonds) currents"},
      {"measurement": "Prevention of Ch-T effects by DTT pretreatment / continuous presence", "setting": "BK:LINGO2 channels; 100 μM DTT, then with Ch-T 5-7 min, 100 nM Ca2+, 5 to 7 experiments", "value": "not prevented; also recorded: the effects of Ch-T were unaltered in the continuous presence of DTT; also recorded: resistant to treatment with the cysteine-specific reducing agent DTT"},
      {"measurement": "Reversal of Ch-T effects by DTT coapplication", "setting": "BK:LINGO2 channels; 200 μM Ch-T 1-4 min, then Ch-T + DTT 4-7 min, 4 to 7 experiments", "value": "unable to reverse the effects of Ch-T"}
    ]},
    {"molecule": "CC[C@H](C)[C@H](NC(=O)[C@H](CC[S+](C)[O-])NC(=O)[C@H](CCCCN)NC(=O)[C@H](CCSC)NC(=O)[C@H](CC(N)=O)NC(=O)[C@H](Cc1ccccc1)NC(=O)[C@H](CCCNC(=N)N)NC(=O)[C@H](CCCNC(=N)N)NC(C)=O)C(N)=O", "note": "(stereo partly drawn) [Ac-RRFNMKM(O)I-NH2] (Ac-RRFNMK[Met(O)]I-NH2)", "values": [
      {"measurement": "95% Confidence Intervals of IC50Last5ms", "setting": "[1]; n = 5-7", "value": "2.0 to 2.7", "unit": "µM"},
      {"measurement": "IC50", "setting": "[1]; [3]", "value": "2.3 ± 0.7", "unit": "µM"},
      {"measurement": "Inactivation of BK currents by peptide", "setting": "[1]", "value": "the rate of inactivation was slower compared to that observed with the WT peptide"}
    ]},
    {"molecule": "CC[C@H](C)[C@H](NC(=O)[C@H](CCSC)NC(=O)[C@H](CCCCN)NC(=O)[C@H](CC[S+](C)[O-])NC(=O)[C@H](CC(N)=O)NC(=O)[C@H](Cc1ccccc1)NC(=O)[C@H](CCCNC(=N)N)NC(=O)[C@H](CCCNC(=N)N)NC(C)=O)C(N)=O", "note": "(stereo partly drawn) [Ac-RRFNM(O)KMI-NH2] (Ac-RRFN[Met(O)]KMI-NH2)", "values": [
      {"measurement": "IC50Last5ms increase compared to WT LINGO2 peptide", "setting": "[1]", "value": "~27", "unit": "fold"},
      {"measurement": "IC50", "setting": "[1]; [3]", "value": "6.9 ± 0.5", "unit": "µM"},
      {"measurement": "Inactivation of BK currents by peptide", "setting": "[1]", "value": "slower than that of the WT peptide"}
    ]},
    {"molecule": "B1", "values": [
      {"measurement": "IC50Last5ms: concentration of the peptide that produced half maximal block in BKα current amplitude in the last 5 ms of a pulse to +160 mV (inside-out HEK patches, 1 μM Ca2+)", "setting": "[2]", "value": 13.9, "unit": "µM"}
    ]},
    {"molecule": "B2", "values": [
      {"measurement": "IC50Last5ms: concentration of the peptide that produced half maximal block in BKα current amplitude in the last 5 ms of a pulse to +160 mV (inside-out HEK patches, 1 μM Ca2+)", "setting": "[2]", "value": 6.9, "unit": "µM"}
    ]},
    {"molecule": "Ac-RRFNMKMI-NH2", "note": "[LINGO2 tail peptide Ac-RRFNMKMI-NH2]", "values": [
      {"measurement": "IC50Last5ms: concentration of the peptide that produced half maximal block in BKα current amplitude in the last 5 ms of a pulse to +160 mV (inside-out HEK patches, 1 μM Ca2+)", "setting": "[2]", "value": 0.26, "unit": "µM"}
    ]},
    {"molecule": "B3", "values": [
      {"measurement": "IC50Last5ms: concentration of the peptide that produced half maximal block in BKα current amplitude in the last 5 ms of a pulse to +160 mV (inside-out HEK patches, 1 μM Ca2+)", "setting": "[2]", "value": 2.3, "unit": "µM"}
    ]}
  ]
}
